Test results from patent publication US12311025B2, “Formulations for eye treatments” (Avedro, Inc., priority 2017, dated 2025).
Converted amounts (≈) assume the structure as drawn.

Tests used:
[1] = Solubility of FMN in co-solvents; type: physicochemical; conditions: organic solvent or mixture
Source text: Other penetration-enhancing agents may include a non-ionic co-solvent as a tonicity agent in a formulation. Tonicity agents that are sufficiently low in MW can readily diffuse into the tissues. The therapeutic agent having good solubility in the co-solvent can experience enhanced delivery through the epithelium and into the stroma. Propylene glycol may be a penetration enhancer for topical formulations by this mechanism of action. Thus, the one or more therapeutic formulations 304 may include one or more co-solvents as tonicity agents 304c. A list of co-solvents that may be used to increase therapeutic agent delivery via this mechanism of action and suitable for ophthalmic use are shown in TABLE 2.
Both propylene glycol and glycerin may be employed as ingredients in dry eye drops. Glycerin has been evaluated for therapeutic agent delivery into the eye and is capable of penetrating the cornea. For instance, FMN has solubility in propylene glycol and glycerin that is greater than the total concentration in the formulation. As the co-solvent penetrates the tissues, it may carry some FMN into the tissues as well enhancing the delivery. Replacing the sodium chloride with glycerin or propylene glycol should not negatively impact therapeutic agent delivery of the FMN.

[2] = cited from earlier work

Row | SMILES | solubility ([1]; in ethanol) [µg/mL] | solubility ([1]; in glycerin) [µg/mL] | solubility ([1]; in propylene glycol) [µg/mL] | solubility in water [2] [%]
1 | Cc1cc2nc3c(=O)[nH]c(=O)nc-3n(C[C@H](O)[C@H](O)[C@H](O)COP(=O)(O)O)c2cc1C [FMN, riboflavin-5′-phosphate] | 80 (≈ 0.175 mM) | 8900 (≈ 19.5 mM) | 5700 (≈ 12.5 mM) | –
2 | CC1CCC(C(C)C)C(O)C1 (stereo not shown) [menthol] | – | – | – | 0.04
